Assay results: US10624884B2, “H4 agonist molecule for the treatment of idiopathic pulmonary fibrosis” (H4 ORPHAN PHARMA, priority 2016, dated 2020)

What was measured:
[1] = system: CFU rich in H4 receptor; test: Proliferation of CFU rich in H4 receptor (FIG. 5); assay type: cell-based; conditions: for Activity on CFU proliferation when an anti H4 is used: with an anti H4
[2] = system: idiopathic pulmonary fibrosis; conditions: 1,800 mg/d for one year, in addition to corticoids and azathioprine, cited from earlier work
[3] = system: bleomycin mouse model of idiopathic pulmonary fibrosis (BL6 mice); test: Bleomycin mouse model: lung histology, semi-quantitative fibrosis score (Ashcroft score); assay type: in vivo, mice (C57/B16J
Method: (§1) The bleomycin mouse protocol (BLM) was conducted with all of the mice of each group of 10 mice (species: C57/B16J, referred to further on as BL6); these are female mice 8 weeks old.
The analyse of the Fibrosis was conducted with all the animals of each group, respectively. The extent of the fibrosis was analysed biochemically, histologically and cytologically using various quantitative and semi quantitative methods.
All of the mice BL6 are treated according to the protocol hereinbelow. • 5 groups of mice were evaluated.
The treatment with bleomycin (BLM) is done according to the following protocol:
(§2) All of the mice of all of the groups (except group 1) receive bleomycin (BLM) intranasally (3 mg/kg via intranasal instillation) for 5 consecutive days and will be monitored daily and killed at D+29 after BLM instillation in order to study the chronic pulmonary inflammation and the fibrosis. The bleomycin being administered five times at the age of 8 weeks (see diagram 3A).
(§3) The treatment with tritoqualine is done in 2 doses, 20 and 40 mg/kg/day throughout the entire life of the mice. The treatment with tritoqualine starts fourteen days after the first inhalation of the treatment with bleomycin. The treatment is done orally. The groups studied were as follows:
After bronchoalveolar lavage (BAL) and perfusion of the lung, the large lobe was fixed in 4% buffered formaldehyde for standard microscopic analysis (Leica microscope). […] sections were coloured with Masson's trichrome (TM) by using standard techniques, which allow for the evaluation of the fibrosis (TM) as the fibres of collagen are coloured blue and the observation of the extent of the inflammation.
The fibrosis was evaluated by a semi-quantitative score (0-5) (Ashcroft score) with the increase in severity by two independent observers.
The fibrosis with the deposit of collagen located at the alveolar walls and in the peribronchial area and the infiltration of inflammatory cells were evaluated using a semi-quantitative score of 0-5 with an increasing severity by two independent observers.

[4] = system: collagen; test: Bleomycin mouse model: titration of collagen (hydroxyproline) in lung homogenate; assay type: in vivo, mice (C57/B16J, BL6); conditions: for Collagen (hydroxyproline), mean±standard deviation: BLM mice, n=10, bleomycin group 340.0±4.888
Method: as §1, §2, §3
The collagen content is done after homogenisation of the lung. After bronchoalveolar lavage (BAL), the entire lung was perfused with a saline solution through the right ventricle of the heart in order to empty the vascular content.
The lungs were frozen at −70° C. until they were used. The lung was then homogenised in PBS and centrifuged.
The supernatant was discarded and the lower portion was put back into suspension in 1 ml of PBS containing 0.5% hexadecyltrimethylammonium bromide (HTAB) and 5 mM ethylene-diamine-tetra-acetic acid (EDTA).
After centrifugation, the collagen content was determined by the Sircol assay (France Biochem Division, France), as described by the manufacturer.
The titration of the collagen (method by the dosage of hydroxyproline) is expressed in μg/mg of proteins.

[5] = system: TGFβ; test: Bleomycin mouse model: measurement of cytokines (TGFβ) in lung homogenate, Luminex assay; assay type: in vivo, mice (C57/B16J, BL6); conditions: BLM mice; P=0.001 for both substances; FIG. 1A
Method: as §1, §2, §3
The interferon gamma and TGFβ levels were measured in a lung homogenate; the concentrations of these different cytokines were determined by a Luminex assay using a MAGPIX (Biorad, France) according to the manufacturer's instructions.

[6] = biological target: T1, histidine decarboxylase (Homo sapiens, UniProt P19113); conditions: background statement; cited from earlier work
T1 sequence (P19113 1-662): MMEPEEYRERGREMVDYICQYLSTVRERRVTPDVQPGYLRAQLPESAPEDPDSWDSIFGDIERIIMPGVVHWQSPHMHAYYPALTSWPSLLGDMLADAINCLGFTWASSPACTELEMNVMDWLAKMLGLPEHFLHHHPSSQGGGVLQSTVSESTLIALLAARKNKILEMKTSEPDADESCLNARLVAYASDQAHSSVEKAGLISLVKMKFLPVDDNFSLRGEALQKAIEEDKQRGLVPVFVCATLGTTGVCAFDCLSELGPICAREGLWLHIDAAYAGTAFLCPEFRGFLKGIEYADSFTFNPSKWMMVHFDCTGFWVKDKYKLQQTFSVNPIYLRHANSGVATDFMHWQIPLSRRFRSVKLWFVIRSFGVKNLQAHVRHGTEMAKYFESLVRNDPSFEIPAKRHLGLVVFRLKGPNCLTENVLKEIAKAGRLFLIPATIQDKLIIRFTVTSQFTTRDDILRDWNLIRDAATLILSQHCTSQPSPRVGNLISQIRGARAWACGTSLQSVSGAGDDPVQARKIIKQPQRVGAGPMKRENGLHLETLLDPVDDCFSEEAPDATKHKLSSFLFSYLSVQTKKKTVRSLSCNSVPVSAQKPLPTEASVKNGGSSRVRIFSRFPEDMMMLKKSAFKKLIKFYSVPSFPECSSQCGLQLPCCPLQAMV

[7] = biological target: histamine H4 receptor (Homo sapiens, UniProt Q9H3N8); conditions: shown in US 2010144718A; cited from earlier work
[8] = commercial white powder; degrades in Cotarnine and phthalic acid; cited from earlier work
[9] = pirfenidone 100 mg/kg po versus bleomycin

histamine H4 receptor, sequence (Q9H3N8 whole entry, species assumed): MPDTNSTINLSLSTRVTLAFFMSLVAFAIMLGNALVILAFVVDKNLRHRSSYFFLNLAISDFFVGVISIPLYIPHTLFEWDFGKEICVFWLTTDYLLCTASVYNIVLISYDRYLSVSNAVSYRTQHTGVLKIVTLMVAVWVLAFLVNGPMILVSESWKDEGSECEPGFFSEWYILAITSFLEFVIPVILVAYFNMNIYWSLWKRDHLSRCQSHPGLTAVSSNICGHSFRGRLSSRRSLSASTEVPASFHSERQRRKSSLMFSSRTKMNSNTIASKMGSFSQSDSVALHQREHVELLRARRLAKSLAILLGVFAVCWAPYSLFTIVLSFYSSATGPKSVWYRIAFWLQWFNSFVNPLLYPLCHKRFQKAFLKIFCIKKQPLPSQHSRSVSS

## NC(=NCc1ccc(Cl)cc1)SCCCc1cnc[nH]1 [Clobenpropit]
[1]
  Activity on CFU proliferation when an anti H4 is used: substantially diminished

## CC(=O)N[C@@H](CS)C(=O)O [N-acetylcysteine]
[2]; (0.03-0.32)
  Average decrease in the decline of the forced vital capacity: 0.18 L
[2]
  Decrease in the decline of the diffusion of CO: 24%
  Mortality between the two groups: no difference in mortality
  Relative difference in the decline of the forced vital capacity: 9%

## Cc1ccc(=O)n(-c2ccccc2)c1 [Pirfenidone, pirfenidone]
[3]; BLM mice, pirfenidone 100 mg/kg po, n=10, bleomycin group 4.2±0.14, P 0.0449
  Histological semi-quantitative score (0-5) (Ashcroft score), mean±standard deviation: 3.8±0.12
[3]; [9]
  Histological score, difference between the two means (treated versus bleomycin): −0.40±0.18
[4]; pirfenidone 100 mg/kg po, P 0.0450
  Collagen (hydroxyproline), mean±standard deviation: 316.5±9.748 μg/mg of proteins
[4]; [9]
  Collagen (hydroxyproline), difference between the two means (treated versus bleomycin): −23.50±10.90 μg/mg of proteins
[5]
  Effect on TGFβ in lung homogenate: strongly inhibits

## CCOc1c(N)c2c(c(OCC)c1OCC)C(C1c3c(cc4c(c3OC)OCO4)CCN1C)OC2=O (centres unmarked) [Tritoqualine, 7-Amino-4,5,6-triethoxy-3-(5,6,7,8-tetrahydo-4-methoxy-6-methyl-1,3-dioxolo[4,5-g]isoquinolin-5-yl) phthalide]
[3]; tritoqualine 20 mg/kg po, D14 to D28, P<0.0002
  Efficacy on histology versus bleomycin (conclusion): very high efficacy
[3]; tritoqualine at the dose of 20 or 40 mg/kg, po
  Effect on the histological score: substantially decreases the histological score
[4]; tritoqualine 20 mg/kg po, P<0.0001
  Collagen (hydroxyproline), mean±standard deviation: 280.0±7.528 μg/mg of proteins
[4]; tritoqualine 20 mg/kg po versus bleomycin
  Collagen (hydroxyproline), difference between the two means (treated versus bleomycin): −60.00±8.975 μg/mg of proteins
[5]
  Effect on TGFβ in lung homogenate: strongly inhibits
[1]
  Effect on the proliferation of CFU rich in H4 receptor: able to inhibit the proliferation of CFU
  Activity on CFU proliferation when an anti H4 is used: substantially diminished
[6]
  Inhibiting activity on histidine decarboxylase: very low
[7]
  Action on the histamine H4 receptor: very substantial action
[8]
  Stability to light: highly sensitive to light
